Laboratory results as given in paper PMC9901164, “Cloning and characterization of nitrate reductase gene in kelp Saccharina japonica (Laminariales, Phaeophyta)” (BMC Plant Biology, 2023).

What was measured:
rSjNR-S = molecular target: T1, rSjNR-S (Saccharina japonica, UniProt A0A977LKQ3); experiment: Griess colorimetric nitrite assay, single concentration; assay type: biochemical; conditions: 5 mM KNO3, 0.2 mM NADH, 100 mM HEPES pH 7.6, 10 μM FAD, 10 μM sodium molybdate, 10 mM MgCl2, 5 mM DTT, 24 °C
T1 construct: E. coli BL21(DE3) pCold-SUMO-10His, Ni-NTA, SUMO tag cut off
T1 sequence (A0A977LKQ3 1-705): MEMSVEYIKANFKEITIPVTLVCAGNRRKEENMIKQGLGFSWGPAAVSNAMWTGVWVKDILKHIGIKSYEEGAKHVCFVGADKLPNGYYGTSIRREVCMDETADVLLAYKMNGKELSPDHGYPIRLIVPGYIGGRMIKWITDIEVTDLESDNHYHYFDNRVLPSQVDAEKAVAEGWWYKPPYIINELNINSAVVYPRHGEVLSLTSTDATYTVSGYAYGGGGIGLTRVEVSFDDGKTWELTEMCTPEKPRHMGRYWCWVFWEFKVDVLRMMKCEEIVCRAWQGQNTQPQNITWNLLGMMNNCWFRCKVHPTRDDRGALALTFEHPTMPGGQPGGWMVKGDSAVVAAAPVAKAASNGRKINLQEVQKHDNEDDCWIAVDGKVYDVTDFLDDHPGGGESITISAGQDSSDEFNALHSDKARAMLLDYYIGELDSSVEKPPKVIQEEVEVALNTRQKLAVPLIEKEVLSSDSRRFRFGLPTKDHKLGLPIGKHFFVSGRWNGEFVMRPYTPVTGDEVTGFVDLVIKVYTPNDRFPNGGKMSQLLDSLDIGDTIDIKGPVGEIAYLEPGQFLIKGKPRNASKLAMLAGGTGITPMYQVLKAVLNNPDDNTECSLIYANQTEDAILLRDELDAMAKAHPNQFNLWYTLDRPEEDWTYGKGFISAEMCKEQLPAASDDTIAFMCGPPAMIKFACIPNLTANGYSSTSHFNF

[1] = substrate: O=[N+]([O-])O; experiment: Griess colorimetric nitrite assay, Michaelis-Menten nonlinear regression; assay type: biochemical, Saccharina japonica; conditions: 0.2 mM NADH, 100 mM HEPES pH 7.6, 10 μM FAD, 10 μM sodium molybdate, 10 mM MgCl2, 5 mM DTT, 24 °C, KNO3 0-20 mM, apparent

Molecule: O=[N+]([O-])O [KNO3]
- Griess colorimetric nitrite assay, single concentration (rSjNR-S): both rSjNR-L and rSjNR-S showed NR activity in vitro

Molecule: NC(=O)C1=CN([C@@H]2O[C@H](COP(=O)(O)OP(=O)(O)OC[C@H]3O[C@@H](n4cnc5c(N)ncnc54)[C@H](O)[C@@H]3O)[C@@H](O)[C@H]2O)C=CC1 [NADH]
- Griess colorimetric nitrite assay, single concentration (rSjNR-S; electron donor): the activity of rSjNR-S was lower than that of rSjNR-L

B1: rSjNR-L (Saccharina japonica) (protein)
chain: MASGIQSCKPEKADASLVNIKGHDYYKDTFVPPAEDVTEIDPRDKGTPDDWVPRHPELVRLTGRHPFNVEPPVWRIKDHGFISPNSLHYVRNHGAVPRIVQGDSHKVRFGGAIDKPMEMSVEYIKANFKEITIPVTLVCAGNRRKEENMIKQGLGFSWGPAAVSNAMWTGVWVKDILKHIGIKSYEEGAKHVCFVGADKLPNGYYGTSIRREVCMDETADVLLAYKMNGKELSPDHGYPIRLIVPGYIGGRMIKWITDIEVTDLESDNHYHYFDNRVLPSQVDAEKAVAEGWWYKPPYIINELNINSAVVYPRHGEVLSLTSTDATYTVSGYAYGGGGIGLTRVEVSFDDGKTWELTEMCTPEKPRHMGRYWCWVFWEFKVDVLRMMKCEEIVCRAWQGQNTQPQNITWNLLGMMNNCWFRCKVHPTRDDRGALALTFEHPTMPGGQPGGWMVKGDSAVVAAAPVAKAASNGRKINLQEVQKHDNEDDCWIAVDGKVYDVTDFLDDHPGGGESITISAGQDSSDEFNALHSDKARAMLLDYYIGELDSSVEKPPKVIQEEVEVALNTRQKLAVPLIEKEVLSSDSRRFRFGLPTKDHKLGLPIGKHFFVSGRWNGEFVMRPYTPVTGDEVTGFVDLVIKVYTPNDRFPNGGKMSQLLDSLDIGDTIDIKGPVGEIAYLEPGQFLIKGKPRNASKLAMLAGGTGITPMYQVLKAVLNNPDDNTECSLIYANQTEDAILLRDELDAMAKAHPNQFNLWYTLDRPEEDWTYGKGFISAEMCKEQLPAASDDTIAFMCGPPAMIKFACIPNLTANGYSSTSHFNF
notes: E. coli BL21(DE3) pCold-SUMO-10His, Ni-NTA, SUMO tag cut off
- Km [1]: 0.42 (± 0.059) mM
